# In ChEMBL document CHEMBL1133765, “QSAR model for drug human oral bioavailability” (J Med Chem, 2000):
# Experiments:
# [1] = physchem
# [2] = octanol/water
# [3] = clinical; conditions: human, in vivo, po
# [4] = physchem; conditions: octanol/water, pH 6.5
# [5] = clinical; conditions: human, in vivo, po, F
# [6] = octanol/water; remark: listed apart in the source
# [7] = physchem; conditions: octanol/water, pH 6.5, logD
compound,measurement,setting,value
COc1ccc2c(c1)N(C[C@H](C)CN(C)C)c1ccccc1S2 [LEVOMEPROMAZINE],pKa,[1],9.2
same,delta logD,[2],-0.89
same,bioavailability,[3],79%
same,logD,[4],1.98
CC(C)NCC(O)COc1cccc2[nH]ccc12 (stereo not drawn) [PINDOLOL],pKa,[1],8.8
same,delta logD,[2],-0.88
same,bioavailability,[3],79%
CC(C)(C)NC[C@@H](O)COc1ccccc1C1CCCC1,pKa,[1],9.3
same,delta logD,[2],-0.9
same,bioavailability,[3],79%
same,logD,[4],1.35
CC(C)COCC(CN(Cc1ccccc1)c1ccccc1)N1CCCC1 (stereo not drawn) [BEPRIDIL],pKa,[1],9.3
same,delta logD,[2],-0.9
same,bioavailability,[3],79%
same,logD,[4],1.1
COc1ccc(CCNCC(O)COc2cccc(C)c2)cc1OC (stereo not drawn) [BEVANTOLOL],pKa,[1],8.4
same,delta logD,[2],-0.87
same,bioavailability,[3],79%
same,logD,[4],1.11
Cc1cc2c(s1)Nc1ccccc1N=C2N1CCN(C)CC1 [OLANZAPINE],pKa,[1],8
same,delta logD,[2],-0.81
same,bioavailability,[3],79%
same,logD,[4],-0.02
COc1ccccc1N1CCN(CCCNc2cc(=O)n(C)c(=O)n2C)CC1,pKa,[1],7.1
same,delta logD,[2],-0.52
same,bioavailability,[3],79%
same,logD,[4],0.9
COc1cccc(C2(O)CCCCC2CN(C)C)c1 (stereo not drawn) [TRAMADOL],pKa,[1],9.4
same,delta logD,[2],-0.9
same,bioavailability,[3],79%
same,logD,[4],0.85
COc1cc2nc(N3CCN(C(=O)C4COc5ccccc5O4)CC3)nc(N)c2cc1OC (stereo not drawn) [DOXAZOSIN],pKa,[1],6.5
same,delta logD,[2],-0.25
same,bioavailability,[3],79%
same,logD,[4],1.14
Nc1nc2ccc(OC(F)(F)F)cc2s1 [RILUZOLE],pKa,[1],6.5
same,bioavailability,[3],79%
CC(C)(C)NCC(O)COc1cccc2c1CCCC2=O (stereo not drawn) [BUNOLOL],pKa,[1],9.3
same,delta logD,[2],-0.9
same,bioavailability,[3],79%
same,logD,[4],-0.4
CN/C(=N/CCSCc1nc[nH]c1C)NC#N [CIMETIDINE],bioavailability,[3],79%
same,logD,[4],-0.08
CC(=O)Nc1ccc(O)cc1 [ACETAMINOPHEN],delta logD,[2],0
same,bioavailability,[3],79%
same,logD,[4],0.51
CCc1cccc2cc(C(O)CNC(C)(C)C)oc12 (stereo not drawn) [BUFURALOL],pKa,[1],9
same,delta logD,[2],-0.89
same,bioavailability,[3],79%
same,logD,[4],1
CSc1ccc(C(=O)c2[nH]c(=O)[nH]c2C)cc1 [ENOXIMONE],delta logD,[2],0
same,bioavailability,[3],79%
same,logD,[4],2.32
Nc1c(CC(=O)O)cccc1C(=O)c1ccc(Br)cc1 [BROMFENAC],pKa,[1],4.3
same,delta logD,[2],0.9
same,bioavailability,[3],79%
same,logD,[4],1.39
CCOC(=O)C1(c2ccccc2)CCN(C)CC1 [MEPERIDINE],delta logD,[2],-0.88
same,bioavailability,[3],79%
same,logD,[4],0.25
COCCCC/C(=N\OCCN)c1ccc(C(F)(F)F)cc1 [FLUVOXAMINE],pKa,[1],9.5
same,bioavailability,[3],79%
Clc1cccc(Cl)c1N=C1NCCN1 [CLONIDINE],bioavailability,[5],> 80%
same,delta logD,[6],-0.82
same,pKa,[1],8
same,logD,[7],0.06
CCN1CCC[C@H]1CNC(=O)c1c(O)c(Cl)cc(Cl)c1OC [RACLOPRIDE],pKa,[1],9.2
same,bioavailability,[3],79%
Cc1nccn1CC1CCc2c(c3ccccc3n2C)C1=O (stereo not drawn) [ONDANSETRON],bioavailability,[5],79%
same,delta logD,[6],-0.61
same,pKa,[1],7.3
same,logD,[7],1.13
NS(=O)(=O)c1cc(C2(O)NC(=O)c3ccccc32)ccc1Cl (stereo not drawn) [CHLORTHALIDONE],delta logD,[2],0
same,bioavailability,[3],79%
same,logD,[4],0.22
COC(=O)C1=C(C)NC(C)=C(C(=O)OCCN(C)Cc2ccccc2)C1c1cccc([N+](=O)[O-])c1 (stereo not drawn) [NICARDIPINE],bioavailability,[5],49%
same,delta logD,[6],-0.72
same,pKa,[1],7.6
same,logD,[7],1.18
CNCCCC1c2ccccc2C=Cc2ccccc21 [PROTRIPTYLINE],bioavailability,[5],> 80%
same,delta logD,[6],-0.84
same,pKa,[1],8.2
same,logD,[7],0.34
